Experimental data from PubChem BioAssay (NCI).
Values joined by “and” are separate entries in the source; they are usually repeats but may differ in a detail not shown here. Equal values may be shown once.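 48-hour exposure; five concentrations; linearly interpolated endpoints. At the GI50, growth is halved. TGI: total growth inhibition.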

Tests used:
Assay in all cases: growth of human tumour cells (NCI), 48 h
RXF 393 renal = test system: RXF 393 renal
A498 renal = test system: A498 renal
OVCAR-8 ovarian = test system: OVCAR-8 ovarian
CAKI-1 renal = test system: CAKI-1 renal
LOX IMVI melanoma = test system: LOX IMVI melanoma
HL-60(TB) leukemia = test system: HL-60(TB) leukemia
HOP-92 NSCLC = test system: HOP-92 NSCLC
SNB-19 CNS = test system: SNB-19 CNS
SR leukemia = test system: SR leukemia
DU-145 prostate = test system: DU-145 prostate

Row | Structure (SMILES) | TGI (RXF 393 renal) | TGI (A498 renal) | TGI (OVCAR-8 ovarian) | TGI (CAKI-1 renal) | TGI (LOX IMVI melanoma) | TGI (HL-60(TB) leukemia) | TGI (HOP-92 NSCLC) | TGI (SNB-19 CNS) [µM] | TGI (SR leukemia) [µM] | TGI (DU-145 prostate) [µM] | GI50 (RXF 393 renal) [µM] | GI50 (A498 renal) [µM] | GI50 (OVCAR-8 ovarian) [µM] | GI50 (DU-145 prostate) [µM] | GI50 (CAKI-1 renal) [µM] | GI50 (LOX IMVI melanoma) [µM] | GI50 (HL-60(TB) leukemia) [µM] | GI50 (HOP-92 NSCLC) [µM] | GI50 (SNB-19 CNS) [µM] | GI50 (SR leukemia) [µM]
1 | CC1CC(c2ccccc2)=Nc2ccccc2S1(=O)=O (stereo unspecified) | 28.7 µM | 28.2 µM | 43.9 µM | 48.5 µM | 31 µM | 52.8 µM | 48.7 µM | 28.4 |  |  |  |  |  |  |  |  |  |  |  | 
2 | N#CCCc1nc2ccc(Br)cc2c(=O)n1CCO | > 100 µM |  | > 100 µM | > 100 µM | > 100 µM | > 100 µM | > 100 µM |  |  |  |  |  |  |  |  |  |  |  |  | 
3 | CCN(CC)CCn1c2c3ccccc3ccc2c2oc(=O)c3ccccc3c21 |  |  | > 100 µM | > 100 µM | > 100 µM | > 100 µM | > 100 µM | > 100 | > 100 |  |  |  |  |  |  |  |  |  |  | 
4 | CC(=O)O/N=C/c1ncccc1CO | > 100 µM | > 100 µM | > 100 µM | > 100 µM | > 100 µM | > 100 µM | > 100 µM | > 100 | > 100 |  |  |  |  |  |  |  |  |  |  | 
5 | CC(=O)NC(CCCCNC(=O)OCc1ccccc1)C(=O)NCc1ccccc1 (stereo unspecified) | > 100 µM | > 100 µM | > 100 µM | > 100 µM | > 100 µM |  | > 100 µM | > 100 |  |  |  |  |  |  |  |  |  |  |  | 
6 | CN1CCN(CCSC2Cc3cc(Cl)ccc3Sc3ccccc32)CC1 (stereo unspecified) | 15.3 µM | 24.7 µM | 19.4 µM | 17.2 µM | 14.1 µM | 5.46 µM | 12.4 µM | 33.9 | 19.9 |  |  |  |  |  |  |  |  |  |  | 
7 | CC1=C2C(O)C(C(C)CO)C(O)CC2(C)C(O)CC1 (stereo unspecified) | > 100 µM | > 100 µM | > 100 µM | > 100 µM | > 100 µM | > 100 µM | > 100 µM | > 100 | > 100 |  |  |  |  |  |  |  |  |  |  | 
8 | COc1cc(C2c3cc4c(cc3[C@@H](Nc3ccc(C(=O)O)cc3)C3COC(=O)[C@H]23)OCO4)cc(OC)c1O (stereo partly specified) | 37 µM and > 17.5 µM | 68.8 µM and > 17.5 µM | 54 µM and > 17.5 µM | 47.1 µM and > 17.5 µM | 18.7 µM and 5.1 µM | 22.8 µM and 16.7 µM | 18.5 µM and > 17.5 µM | > 100 |  |  |  |  |  |  |  |  |  |  |  | 
9 | COc1ccc(NC(=O)C2C(=O)N(c3ccc(OC)cc3)C(=O)/C2=N/O)cc1 (stereo unspecified) | 30.5 µM | 59.3 µM | 32 µM | > 77.3 µM | > 100 µM | > 100 µM | 47.8 µM | > 70.5 | > 100 |  |  |  |  |  |  |  |  |  |  | 
10 | CC(=O)CC1CCC(=O)CCC(=O)OC(CC(C)=O)CCC(=O)CCC(=O)O1 (stereo unspecified) | > 100 µM |  | > 100 µM |  |  | > 100 µM | > 100 µM | > 100 |  | > 100 |  |  |  |  |  |  |  |  |  | 
11 | Cc1nc2ccc(C(F)(F)F)cc2nc1Nc1ccc(Cl)c(Cl)c1 | 19.1 µM |  | 25.4 µM |  | 13.5 µM | 24 µM | 12.1 µM | 27.1 | 51.9 |  |  |  |  |  |  |  |  |  |  | 
12 | Cc1nc(N)sc1C(=O)/C=C/c1ccc(/C=C/C(=O)c2sc(NC(=O)CCCCCCCCC(=O)Nc3nc(C)c(C(=O)/C=C/c4ccc(/C=C/C(=O)c5sc(N)nc5C)cc4)s3)nc2C)cc1 | > 100 µM |  | > 100 µM | > 100 µM | > 100 µM | > 100 µM |  | > 100 | > 100 |  |  |  |  |  |  |  |  |  |  | 
13 | c1cnc2c(c1)-n1cccc1C1(CCSCC1)NN2 |  |  | > 100 µM | > 100 µM | > 100 µM | > 100 µM |  | > 100 | > 100 |  |  |  |  |  |  |  |  |  |  | 
14 | CC(C)c1ccc(Cc2cnc(NC(=O)c3cc(Br)cs3)s2)cc1 | 5.97 µM | 4.67 µM | > 100 µM | > 100 µM | > 100 µM | > 100 µM | 87.5 µM | > 100 |  | > 100 | 1.75 | 0.242 | 4.4 | 3.67 | 1.16 | 5.35 | 3.6 | 5.51 | 5.02 | 
15 | O=C(Nc1ccc(Cl)cc1)Nc1ccc(Cl)c(Cl)c1 |  | 7.94 µM | > 100 µM | > 100 µM | > 100 µM | 7.69 µM | 5.46 µM | > 100 |  | > 100 |  | 3.05 | 5.02 | 4.08 | 2.96 | 3.39 | 2.84 | 1.62 | 4.01 | 
16 | CC1(C)C(=O)N(c2ccccc2)C(=O)N1c1nc2ccccc2[nH]1 | > 100 µM | > 100 µM | > 100 µM | > 100 µM | > 100 µM | > 100 µM | > 100 µM | > 100 | > 100 |  |  |  |  |  |  |  |  |  |  | 
17 | CCOC(=O)C(C)(C)Oc1ccc2c(=O)cc(-c3ccc(Cl)cc3)oc2c1 | > 100 µM | > 100 µM | > 100 µM |  | > 100 µM | > 100 µM |  | > 100 | > 100 |  |  |  |  |  |  |  |  |  |  | 
18 | Cc1nn(C(=O)c2ccccc2O)c2c1C(c1ccccc1)SC(N)=N2 (stereo unspecified) | > 10 µM |  | > 10 µM | > 10 µM | > 10 µM | 3.58 µM |  | > 10 | 6.49 | > 10 |  |  |  |  |  |  |  |  |  | 
19 | COc1cc2c(cc1C)NC(=O)/C2=C\c1cc(OC)c(OC)c(OC)c1 | 36.1 µM | > 100 µM | > 100 µM | > 100 µM | > 100 µM | 45.7 µM | 30.6 µM | > 100 | 47.4 |  | 14.2 | 31.1 | > 100 |  | > 100 | > 100 | 13.8 | 10.4 | 91.9 | 11.5
20 | CCN(CC)CCNc1c(OC)cc(C)c2sc3ccccc3c(=O)c12 | 34 µM |  | 26.1 µM | 20.6 µM |  | 18.9 µM | 32.2 µM | 26.6 | 5.33 | 24.2 |  |  |  |  |  |  |  |  |  | 
21 | CC(=O)O[C@H]1C(N(C)C(=O)c2ccccc2)CC[C@]2(C)C3CC[C@@]4(C)C(CC(O)[C@@H]4C(C)N(C)C)[C@@H]3CCC12 (stereo partly specified) |  | > 100 µM | > 100 µM | > 100 µM | > 100 µM | > 100 µM | > 100 µM | > 100 | > 100 |  |  |  |  |  |  |  |  |  |  | 
22 | C=CCn1c(C)nc2cc(Nc3nc(Nc4ccc5nc(C)n(CC=C)c5c4)c4ccccc4n3)ccc21 | 1.37 µM | 2.87 µM | 0.535 µM | 3.03 µM | 0.466 µM | 4.13 µM | 2.08 µM |  |  | 1.34 | 0.354 | 1.46 | 0.229 | 0.389 | 1.61 | 0.208 | 1.7 | 0.78 |  | 
